The values that follow come from patent US5880122A, “3-Carboxamide derivatives of 5H-pyrrolo[2,1-c][1,4]-benzodiazepines” (American Home Products Corporation, priority 1997, dated 1999).

Where a name gives a salt, the structure may show the parent alone.

In one experiment the target is T1, Human V2 Vasopressin Receptor (Homo sapiens, UniProt P30518).
T1 construct: expressed in transfected cells; host or cells: mouse fibroblast cell line LV-2
T1 sequence (P30518 whole entry): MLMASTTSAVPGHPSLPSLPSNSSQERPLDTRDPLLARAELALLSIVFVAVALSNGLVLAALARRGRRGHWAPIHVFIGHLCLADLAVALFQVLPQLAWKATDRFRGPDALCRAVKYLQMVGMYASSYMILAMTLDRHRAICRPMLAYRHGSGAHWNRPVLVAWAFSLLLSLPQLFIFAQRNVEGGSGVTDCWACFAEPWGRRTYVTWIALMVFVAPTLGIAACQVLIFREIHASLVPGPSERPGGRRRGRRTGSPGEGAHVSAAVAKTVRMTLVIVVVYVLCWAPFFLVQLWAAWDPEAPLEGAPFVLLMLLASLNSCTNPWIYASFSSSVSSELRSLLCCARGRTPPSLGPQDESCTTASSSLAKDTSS
Put plainly: Binding to membranes of mouse fibroblast cell line (LV-2) transfected with the cDNA expressing the human V2 vasopressin receptor. As to conditions: LV-2 cell membranes, [3H] Arginine8 vasopressin 0.8 nM, 120 min. As for the experimental part: Flasks of 175 ml capacity, containing attached cells grown to confluence, are cleared of culture medium by aspiration. The flasks containing the attached cells are rinsed with 2×5 ml of phosphate buffered saline (PBS) and the liquid aspirated off each time. Finally, 5 ml of an enzyme free dissociation Hank's based solution (Specialty Media, Inc., Lafayette, N.J.) is added and the flasks are left undisturbed for 2 min. The content of all flasks is poured into a centrifuge tube and the cells pelleted at 300×g for 15 min. […] The homogenate is centrifuged at 1500×g for 10 min to remove ghost membranes. […] Upon completion, the pellet is resuspended in a small volume of 50.0 mM Tris.HCl buffer, pH 7.4. The protein content is determined by the Lowry method and the receptor membranes are suspended in 50.0 mM Tris.HCl buffer containing 0.1 mM phenylmethylsulfonylfluoride (PMSF) and 0.2% bovine serum albumin (BSA) to give 2.5 mg receptor protein per ml of suspension.
Arginine^8, vasopressin (S.A. 75.0 Ci/mmole) at 0.8 nM and the reaction initiated by the addition of 80.0 ml of tissue membranes (200.0 mg tissue protein). […] Non specific binding is assessed in the presence of 1.0 mM of unlabeled ligand, added in 20 ml volume. […] The data are analyzed for IC50 values by the LUNDON-2 program for competition (LUNDON SOFTWARE, Ohio).
`Cc1ccc(F)cc1C(=O)Nc1ccc(C(=O)N2Cc3ccc(C(=O)[N-][N+](C)(C)C)n3Cc3ccccc32)c(Cl)c1` [Example 5, 2-[[10-[2-Chloro-4-[(5-fluoro-2-methylbenzoyl)amino]benzoyl]-10,11-dihydro-5H-pyrrolo[2,1-c][1,4]benzodiazepin-3-yl]hydroxymethylenel-1.1,1-trimetpyIpydraziniuminner salt]: the IC50 stood at 60 nM. Consider `O=C(Nc1cc(C(=O)N2Cc3ccc(C(=O)C(Cl)(Cl)Cl)n3Cc3ccccc32)ccc1Cl)c1ccccc1-c1ccccc1` [Example 6, N-[5-[3-trichloromethylcarbnyl]-[5H-pyrrolo-[2,1-c]-[1,4]-benzdiazalin-10(11H)-ylcarbonyl]-2-chloronhenyl]-2-henylbenzamide], for which the 50% inhibitory concentration (IC50) was 5.6 nM.

The subject of a further experiment is Endogenous Arginine Vasopressin Antidiuretic (V2) Response. Kind of experiment: Antagonism of endogenous arginine vasopressin antidiuretic (V2) response in conscious rats (urine volume). It counts as in vivo, Sprague-Dawley rats. Conditions: oral 10 mg/kg dose, urine collected for 4 hours, no water during test. As to the method: On the day of test, rats were placed individually into metabolic cages equipped with stainless steel screens (to separate the feces from the urine) and funnels for collection of urine. Vehicle or reference agent was given at various oral doses. During the test, rats were not provided with water or food. Urine was collected for four hours after dosing of the test compound. At the end of four hours, urine volume was measured. […] Determinations of Na^+, K^+ and Cl^- ion were carried out using ion specific electrodes in a Beckman SYNCHRON EL-ISE Electrolyte System analyzer.
On to `CN1CCN(NC(=O)c2ccc3n2Cc2ccccc2N(C(=O)c2ccc(NC(=O)c4ccccc4-c4ccccc4)cc2Cl)C3)CC1` [Example 13, Bilphenyl-2-carboxylic acid{3-chloro-4-[3-(4-methyl-piperazine-1 aminocarbonyl)-5H,11H-pyrrolo[2,1-c][1,4]benzodiazepine-10-carbonyl]-phenyl}-amide.], for which the “Urine Volume (ml/4 hrs) 10 mg/kg rat p.o.” value is reported as 16.8 ml/4 hrs.

Consider `O=C(Nc1ccc(C(=O)N2Cc3ccc(C(=O)N4CCC(N5CCOCC5)CC4)n3Cc3ccccc32)c(Cl)c1)c1ccccc1-c1ccccc1` [Example 15, Biphenyl-2-carboxylic acid{3-chloro-4-[3-(4-morpholino-1piperidine-1-carbonyl)-5H,11H-pyrrolo[2,1-c][1,4]benzodiazepine-10-carbonyl]-phenyl}-amide.], for which the “Urine Volume (ml/4 hrs) 10 mg/kg rat p.o.” value is on record as 19.3 ml/4 hrs.

In the case of `O=C(Nc1ccc(C(=O)N2Cc3ccc(C(=O)N4CCC(N5CCCCC5)CC4)n3Cc3ccccc32)c(Cl)c1)c1ccccc1-c1ccccc1` [Example 11, Biphenyl-2-carboxylic acid{3-chloro-4-[3-(4-piperidinyl-pilperidine-1-carbonyl)-5H,11H-pyrrolo[2,1-c][1,4]benzodiazepine-10-carbonyl]-phenyl}-amide.], the “Urine Volume (ml/4 hrs) 10 mg/kg rat p.o.” value was determined as 20.5 ml/4 hrs. The same measure, in the same setting: under `CN(C)C1CCN(C(=O)c2ccc3n2Cc2ccccc2N(C(=O)c2ccc(NC(=O)c4ccccc4-c4ccccc4)cc2Cl)C3)CC1` [Example 12, Biphenyl-2-carboxylic acid {3-chloro-4-[3-(4-dimethylamino-piperidine-1-carbonyl)-5H,11H-1pyrrolo[2,1-c][1,4]benzodiazeline-10-carbonyl]-phenyl}-amide.] stands 21.4 ml/4 hrs. As for `COc1cc(NC(=O)c2ccccc2-c2ccccc2)ccc1C(=O)N1Cc2ccc(C(=O)NN(C)C)n2Cc2ccccc21` [Example 17], the “Urine Volume (ml/4 hrs) 10 mg/kg rat p.o.” value worked out at 9.4 ml/4 hrs.

With `Cc1ccc(F)cc1C(=O)Nc1ccc(C(=O)N2Cc3ccc(C(=O)[N-][N+](C)(C)C)n3Cc3ccccc32)c(Cl)c1` [Example 5, 2-[[10-[2-Chloro-4-[(5-fluoro-2-methylbenzoyl)amino]benzoyl]-10,11-dihydro-5H-pyrrolo[2,1-c][1,4]benzodiazepin-3-yl]hydroxymethylenel-1.1,1-trimetpyIpydraziniuminner salt], the “Urine Volume (ml/4 hrs) 10 mg/kg rat p.o.” value amounted to 9.1 ml/4 hrs. For the compound `COc1cc(NC(=O)c2ccccc2-c2ccccc2)ccc1C(=O)N1Cc2ccc(C(=O)N3CCN(C)CC3)n2Cc2ccccc21` [Example 16], the “Urine Volume (ml/4 hrs) 10 mg/kg rat p.o.” value is reported as 24.3 ml/4 hrs.

Regarding `O=C(O)CNC(=O)c1ccc2n1Cc1ccccc1N(C(=O)c1ccc(NC(=O)c3ccccc3-c3ccccc3)cc1Cl)C2` [Example 18], the “Urine Volume (ml/4 hrs) 10 mg/kg rat p.o.” value was 7.8 ml/4 hrs.

Consider `CN(C)NC(=O)c1ccc2n1Cc1ccccc1N(C(=O)c1ccc(NC(=O)c3ccccc3-c3ccccc3)cc1Cl)C2` [Example 8], for which the “Urine Volume (ml/4 hrs) 10 mg/kg rat p.o.” value amounted to 40.9 ml/4 hrs. `CN1CCN(C(=O)c2ccc3n2Cc2ccccc2N(C(=O)c2ccc(NC(=O)c4ccccc4-c4ccccc4)cc2Cl)C3)CC1` [Example 9]: the “Urine Volume (ml/4 hrs) 10 mg/kg rat p.o.” value was found to be 23.7 ml/4 hrs. With `O=C(Nc1ccc(C(=O)N2Cc3ccc(C(=O)O)n3Cc3ccccc32)c(Cl)c1)c1ccccc1-c1ccccc1` [Example 7], the “Urine Volume (ml/4 hrs) 10 mg/kg rat p.o.” value is given as 19.2 ml/4 hrs. As for `Cc1ccc(F)cc1C(=O)Nc1ccc(C(=O)N2Cc3ccc(C(=O)N[N+](C)(C)C)n3Cc3ccccc32)c(Cl)c1` [Example 4], the “Urine Volume (ml/4 hrs) 10 mg/kg rat p.o.” value turned out to be 9.2 ml/4 hrs.
